The structures appear in SMILES notation.

Chain of Low molecular weight phosphotyrosine protein phosphatase (Homo sapiens) (P24666 whole entry, looked up): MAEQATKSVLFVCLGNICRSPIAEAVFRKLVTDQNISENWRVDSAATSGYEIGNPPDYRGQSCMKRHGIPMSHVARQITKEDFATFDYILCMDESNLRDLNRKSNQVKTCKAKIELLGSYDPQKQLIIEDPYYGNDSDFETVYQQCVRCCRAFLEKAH

One test addresses Low molecular weight phosphotyrosine protein phosphatase (Homo sapiens) (UniProt P24666). Description: Competitive inhibition of LMW-PTP-B (unknown origin).
In the case of `Cc1ncc(COP(=O)(O)O)c(C=O)c1O`, the Kis is 7.6 µM.

For another test the target is unchanged. Description: Competitive inhibition of human GST-tagged LMW-PTP-B expressed in Escherichia coli JM 109 cells using p-nitrophenyl phosphate as substrate after 15 mins by microplate reader analysis.
In turn, `CC1=C[C@H](O)[C@@H](O)[C@]2(C)[C@H]3[C@@]4(O)OC[C@]35[C@H]([C@@H](C)[C@H]4O)[C@@H](O)C(=O)O[C@@H]5C[C@@H]12` showed a Kis of more than 450 µM. As for `O=c1c(O)cccc2cc(O)c(O)c(O)c12`, the Kis is 10.4 µM.

The compound `Nc1nc(N)nc([C@@H]2C=CCCC2)n1` registered a Kis of more than 450 µM. Same read-out and setting: then `Cc1ncc(COP(=O)(O)O)c(C=O)c1O`, with 3.73 µM. Same read-out and setting: then `COc1ccc2nc3cc(Cl)ccc3c(C#N)c2c1`, with more than 450 µM; and `Nc1nc(N)c(/N=N/c2ccc(S(N)(=O)=O)cc2)c(O)n1`, with 128 µM; and `C[C@@H]1O[C@@H](Oc2c(-c3cc(O)c(O)c(O)c3)oc3cc(O)cc(O)c3c2=O)[C@H](O)[C@H](O)[C@H]1O`, with more than 126 µM. Take `O=C(O)c1nn(-c2ccccc2-c2nnc(O)nc2O)c(=O)[nH]c1=O`: the Kis stood at 1650 µM. The compound `O=Cc1c[nH]c2ncccc12` yielded a Kis of 7190 µM. The compound `COC(=O)[C@@H]1[C@H](O)[C@H](C)[C@H](O)[C@H](C)/C=C\C=C(/C)C(=O)Nc2c(C)c(OC(C)=O)c3c(c2O)C(=O)C(C)=C2OCOC(=C23)/C(C)=C/[C@@](C)(O)[C@H](O)[C@@H](C)[C@H]1O` showed a Kis of 93.9 µM.

For the compound `O=C(O)CCNC1CCCCC1`, the Kis is 3300 µM.

The compound `O=C(O)CCCC[C@@H]1SC[C@@H]2NC(=O)N[C@@H]21` returned a Kis of 2330 µM. `O=C(O)/C=C/C(=O)N1Cc2cc3ccccc3nc2C1` had a Kis of 493 µM. The compound `Cc1ccc([N+](=O)[O-])cc1NC(=O)Nc1ccc(S(N)(=O)=O)cc1` returned a Kis of 2230 µM.

The compound `O=c1oc2c(cc1O)oc(=O)c1cc(O)c(O)c(O)c12` came in with a Kis of 10.8 µM.

`Nc1nc(SCc2ccccn2)c2ncn([C@@H]3O[C@H](CO)[C@@H](O)[C@H]3O)c2n1` yielded a Kis of more than 450 µM. `Nc1nc2c[nH]c(N)nc-2n1`: the Kis was 31.7 µM. On to `O=C(O)Cc1ccc(/N=N/c2c(O)c(C(=O)O)cc3ccccc23)cc1`, for which the Kis came to 33.5 µM. Same read-out and setting: then `Cc1c2cc(O)c(=O)cc-2oc2cc(O)c(O)cc12`, with 13.5 µM. Consider `CC(C)(C)c1ccc(OCC(=O)O)cc1`, for which the Kis was more than 450 µM. `c1ccc(CSc2nc3c[nH]cnc-3n2)cc1` returned a Kis of more than 450 µM. `OCC(O)C1OCOC(C(O)CO)C1O` (stereo not given) showed a Kis of more than 450 µM. Compound `COc1ccc(C(=O)O)nc1C` came in with a Kis of 2780 µM.

In turn, `Cc1cccc(N=C(S)Nc2cccc(C)n2)n1` had a Kis of more than 450 µM. `O=C(O)c1ccc2c(c1Nc1ccccc1)C(=O)c1ccccc1C2=O` registered a Kis of 161 µM.

`CC[C@@]1(O)C(=O)OCc2c1cc1n(c2=O)Cc2cc3c(NC(=O)CN)cccc3nc2-1` had a Kis of 538 µM.

In the case of `CC(C)c1nc2c(=O)n(C)c(=O)n(C)c2[nH]1`, the Kis is more than 450 µM.

As to `Cc1cc(C)c2c(SC(C)C)nc(N)nc2n1`, the Kis came out at 925 µM. `N=C(N)n1c(N)nc2ccccc2c1=O` had a Kis of 1180 µM. `Nc1o[nH]c(=O)c1C1CCCCC1` registered a Kis of more than 450 µM. `Oc1cc(-c2nn[nH]n2)nc(O)n1` came in with a Kis of more than 450 µM. `Cc1cccc(C)c1NC(=O)Nc1ccc(S(N)(=O)=O)cc1` returned a Kis of 1760 µM. Take `Nc1nc(N)c(/N=N/c2ccc(SCC(=O)O)cc2)c(O)n1`: the Kis was 730 µM. The compound `O=C(/C=C/c1ccc(O)c(O)c1)OC1[C@@H](O)CC(OC(=O)/C=C/c2ccc(O)c(O)c2)(C(=O)O)C[C@@H]1O` (stereo not given in full) returned a Kis of 635 µM. In turn, `O=c1cc(-c2ccc(O)cc2)oc2c(O)c(O)c(O)c(O)c12` displayed a Kis of 18.8 µM. The compound `O=C(O)C1OCC2(CO1)COC(C(=O)O)OC2` (stereo not given) returned a Kis of more than 450 µM.

`CCCCSc1cc(C)nc(N)n1` yielded a Kis of more than 450 µM. `Cn1c(=O)c2nc(CNc3ccc(C(=O)O)cc3)[nH]c2n(C)c1=O` had a Kis of 1560 µM.

Compound `O=C(O)c1ccc(N2CCCCC2)cc1O` returned a Kis of more than 450 µM. `O[C@@H]1[C@H](OCc2ccccc2)OC[C@@H](O)[C@H]1O` came in with a Kis of more than 450 µM.

Compound `Cn1c(=O)c2nc(COc3ccc(C(C)(C)C)cc3)[nH]c2n(C)c1=O` yielded a Kis of more than 450 µM.

For a further test the target is unchanged. Kind of test: Uncompetitive inhibition of human GST-tagged LMW-PTP-B expressed in Escherichia coli JM 109 cells using p-nitrophenyl phosphate as substrate after 15 mins by microplate reader analysis.
Turning to `O=C1c2ccccc2C(=O)c2[nH]cnc21`, the Kii was found to be 7.97 µM. In the case of `CCO[C@H]1CCc2c(C)nc(N)nc2S1`, the Kii worked out at 122 µM.

For the compound `Cc1c2cc(O)c(=O)cc-2oc2cc(O)c(O)cc12`, the Kii was 31.7 µM.

The values are drawn from ChEMBL document CHEMBL2434938, “Identification of new inhibitors for low molecular weight protein tyrosine phosphatase isoform B” (Bioorg Med Chem Lett, 2013).
